Data: US20040043939A1, “Peptide-based gemini compounds” (SmithKline Beecham p.l.c., priority 1997, published 2004)
Numbered stars: 1 amine (or outer) side, 2 acyl side, 3 side chain; on linkers, the order of the positions; unused ones are H or OH. Bridge positions count the residues as written; N and C are the ends. Peptide text beside a SMILES is read from it. I, II: the chains in the order shown. * marks the point of attachment. NH(CH2)11CH3 = CCCCCCCCCCCCN*; CH2CH2 = C(C[*:2])[*:1]

Key:
Format in all cases: cell-based
HEK293 cells = experiment: Transfection of luciferase plasmid into HEK293 cells, luciferase activity assay; conditions: for Efficiency in facilitating transfection of the luciferase plasmid: at concentrations above 150 ug/ml; for Luciferase activity, mean count at most effective (peak) concentration: luciferase control plasmid 6 ug, mean of 4 independent counts; for Concentration of peak transfection efficiency (most effective concentration): luciferase plasmid
Method: All tissue culture reagents were obtained from Life Technologies Inc. HEK 293 cells were seeded at 2-3×10^5 cells per well in Nunc six-well culture plates, 24 hours prior to transfection. The cells were seeded in 2 mls Dulbeccos Modified Eagle medium containing Earles salts and supplemented with 10% v/v foetal bovine serum (=complete medium). The cells were grown at 37° C. in 5% CO2 in a humidified atmosphere. 6 ug DNA (“luciferase control plasmid” from Promega Corp.) were dissolved in 100 ul serum free medium (OPTI-MEMO). The peptide-based gemini compounds were made up at 1 mg/ml in tissue culture grade water and then diluted in OPTI-MEM® to the appropriate concentration to a final volume of 100 ul. The DNA and gemini solutions were mixed (to a total volume of 200 ul; final concentrations of 5, 25, 50, 100, 150, 200, 250 and 300 ug/ml) and left at room temperature for 15 minutes. The DNA/gemini mix was placed onto the cells in each well and left in contact for 18-20 hours. The cells were then washed twice with phophate buffered saline prior to 1 ml of fresh complete medium being added. Cells were incubated for a further 24 hours prior to lysis and luciferase activity assayed.
All luciferase activity assays were performed using the Canberra Packard (Berkshire, UK) Luclite kit according to the manufacturer's instructions with the exception that the cells in each well were resuspended in 1 ml lysis buffer and 100 ul aliquots mixed with 100 ul of the luciferase substrate. The reaction mix was left for a 15 minutes adaptation period in the dark before counting for 5 minutes in a Top Count scintillation counter. Luciferase activity is measured as counts per second (CPS) from the scintillation counter. Four independent counts were taken per well.
Control transfections were set up with no DNA, CaPO4, an anionic gemini compound (1) and the commercially available lipofection reagents LipofectAmine™ and Lipotaxi™ at the manufacturers recommended concentrations (10, 25, 50, 75, 125 ug/ml and 175, 250, 325, 400 and 500 ug/ml respectively).

CHO-K1 cells [1] = experiment: Transfection of luciferase plasmid into CHO-K1 cells, luciferase reporter gene assay; conditions: for Luciferase activity, mean count at most effective (peak) concentration: 5 ug luciferase plasmid, about 48 h post transfection; for Concentration of peak transfection efficiency (most effective concentration): luciferase plasmid
Method: CHO-K1 cells (ATCC: CRL-9618) were seeded into T25-culture flasks (Corning-Costar Buckinghamshire, UK), at 7×10^5 cells per flask, 24 hours prior to transfection. The CHO-K1 cells were seeded in 5 ml MEM alpha medium with ribonucleosides and deoxyribonucleosides and supplemented with 1× L-glutamine and 10% v/v foetal bovine serum (complete medium). The cells were grown at 37° C. in 5% CO2 in a humidified atmosphere.
For transfection, 5 ug DNA (luciferase control plasmid) was incubated with the gemini compounds in water (final volume 400 μl). The peptide-based gemini compounds were made up at 1 mg ml^−1 in tissue culture grade water and then diluted to the appropriate concentration to a total volume of 200 ul. Following a 30 minute room temperature incubation, 2.6 ml OPTI-MEM® medium was added and the solution placed on the cells. Following an overnight incubation at 37° C., the transfection solution was replaced with complete medium and the cells incubated at 37° C. 24 hours post transfection the cells were detached from the flask and seeded into 96-well plates at a density of 0.5×10^5 cells per well and incubated for a further 24 hours at 37° C. Luciferase reporter gene assays were performed according to the manufacturers instructions (Roche Diagnostics, Mannheim, Germany) approximately 48 hours post transfection. The plates were left for a 15 minutes adaption period in the dark before counting for 60 seconds in a TopCount NXT counter (Canberra Packard). An average of eight wells were counted per transfection.
Control transfections were set up with no DNA, an anionic gemini compound and the commercially available reagent LipofectAmine PLUS™.

CHO-K1 cells [2] = experiment: Transfection of luciferase plasmid into CHO-K1 cells with gemini compounds in combination with supplements (DOPE, PLUS)
Method: The transfection ability of the gemini compounds could be further enhanced by the addition of a neutral carrier, for example, dioleyl phosphatidylethanolamine (DOPE) (Farhood, H., et al (1985) Biochim. Biophys. Acta 1235 289) or a complexing reagent, for example, PLUS compound (Life Technologies Inc.). […] Transfection mediated by compound 55 with DOPE in a 2:1 ratio and the addition of 11.6 ul of PLUS compound lead to a mean count of 6.5×10^5 cps representing a 12-fold increase of luciferase activity in comparison to compound 55 alone. Incubation of the PLUS compound with the DNA and combination with compound 55 alone also lead to a 4-fold increase.

[3] = compound 55 with DOPE 2:1 plus 11.6 ul PLUS compound

Molecule | Efficiency in facilitating transfection of the luciferase plasmid (HEK293 cells) | Luciferase activity, mean count at most effective (peak) concentration (HEK293 cells) | Concentration of peak transfection efficiency (most effective concentration) (HEK293 cells) [µg/mL] | Efficiency in facilitating transfection of the luciferase plasmid (CHO-K1 cells [1]) | Luciferase activity, mean count at most effective (peak) concentration (CHO-K1 cells [1]) | Concentration of peak transfection efficiency (most effective concentration) (CHO-K1 cells [1]) [µM] | Increase of luciferase activity (CHO-K1 cells [2]; PLUS compound incubated with the DNA, combined with compound 55 alone (no DOPE)) [fold] | Increase of luciferase activity (CHO-K1 cells [2]; compound 55 and DOPE at 2:1 ratio) [fold] | Increase of luciferase activity in comparison to compound 55 alone (CHO-K1 cells [2]; [3]) [fold] | Luciferase activity, mean count (CHO-K1 cells [2]; [3]) | Luciferase activity count, control transfection (HEK293 cells; CaPO4 transfection)
CCCCCCCCCCCCCNC(=O)C(CO)NC(=O)C(CSCCSCC(NC(=O)C(N)CCCCNC(=O)C(N)CCCCN)C(=O)NC(CO)C(=O)NCCCCCCCCCCCC)NC(=O)C(N)CCCCNC(=O)C(N)CCCCN.Cl.Cl.Cl.Cl (centres unmarked) [Compound 55] | very efficient agents | about 45,000 cps | 300 | very efficient agents | about 2.4×10^5 cps | 30 | 4 | 9 | 12 | 6.5×10^5 cps | –
CCCCCCCCCCCCNC(=O)C(CO)NC(=O)C(CSCCSCC(NC(=O)C(CCCCNC(=O)C(N)CCCCN)NC(=O)C(N)CCCCN)C(=O)NC(CO)C(=O)NCCCCCCCCCCCC)NC(=O)C(CCCCNC(=O)C(N)CCCCN)NC(=O)C(N)CCCCN.Cl.Cl.Cl.Cl.Cl.Cl.Cl.Cl (centres unmarked) [Compound 56] (I: H-KK(Lys)CS-{NH(CH2)11CH3} / II: H-KK(Lys)CS-{NH(CH2)11CH3}; linker I:3-II:3 via CH2CH2; configuration not given here) | very efficient agents | about 50,000 cps | 200 | very efficient agents | about 1.9×10^5 cps | 40 | – | – | – | – | –
CaPO4 [reference compound] | – | – | – | – | – | – | – | – | – | – | about 2,000 cps
